The results in this text go back to patent US20140275509A1, “MULTIFUNCTIONALIZED MATERIALS” (Nanoimmunotech SRL, priority 2011, published 2014).

The subject of this test is Human tumor cells Hmy-2 (HLA-DR class II positive B cell line). As to the kind of experiment: Recognition, internalization, labeling and drug release. The format is cell-based. To be noted: drug transported into the cell by cyclodextrin on the BH1/fluorophore/penetrating peptide gold nanoparticles, 1:1:1:1 molar ratio. The source says:
The antibody described above, BH1 functionalized with the PNA-B sequence, has been conjugated to 13 nm gold nanoparticles previously functionalized with the PNA-A sequence by means of the complementary strand hybridization technique. […] On the other hand and due to the possibility of producing a multifunctionalization by using the presented technology, molecules of a cell-penetrating peptide with the DNA-B sequence could further be bound to the nanostructures by hybridization, as occurred with BH1 to the nanoparticles. Furthermore and continuing with the possibility of producing multifunctionalization by using the presented technology, fluorescent labeling molecules functionalized with the DNA-B sequence could be bound to the previous nanostructures by hybridization, as occurred with the BH1 to the nanoparticles. […] To conclude and continuing with multifunctionalization allowed by the presented technology, molecules of cyclodextrin functionalized with the DNA-B sequence could be bound to the previous nanostructures by hybridization as occurred with BH1, fluorophore and penetrating peptide to the nanoparticles, using a 1:1:1:1 molar ratio, respectively.

As to `CC1(C)CCC2=C(O1)c1ccccc1C(=O)C2=O` [β-Lapachone], the cell death result is “selectively induced cell death”.
